Test results taken from US7795305B2, “CDDO-compounds and combination therapies thereof” (Board of Regents, The University of Texas System, priority 2000, dated 2010).
Like-named read-outs stand apart in the source and are kept apart here.

Experiments:
HL-60 cells [1] = test: Viable cell count of leukemic cells in suspension culture (Trypan blue); type: cell-based, human; conditions: for IC50: HL-60
Experimental: (§1) Suspension culture of leukemic cells. Leukemic cell lines were cultured at a density of 3.0×10^5 cells/mL, and AML mononuclear cells at 5×10^5 cells/mL in the presence or absence of indicated concentrations of CDDO-Me. Appropriate amounts of DMSO (final concentration<0.05%) was included as a control. For cytotoxicity studies, 1 μM ara-C was added to the cultures.
CDDO. […] The percentage of proliferating cells were analyzed by FCM.
CDDO-Me. […] Mechanism of growth inhibition was analyzed on cell cycle and apoptosis in HL-60 cells.

HL-60 cells [2] = test: Differentiation by CD11b/CD14 flow cytometry; type: cell-based, human; conditions: for CD11b %: 7 days; for percentage of CD14 (+) live cells (FCM): no ligand
Experimental: Immunophenotyping. The PE-conjugated anti-CD11b, FITC-conjugated anti-CD14 monoclonal antibody (mAb) (Becton Dickinson) and PE-conjugated anti-CD95 mAb (PharMingen) were used at a 1/10 dilution.
Enhancement in cellular differentiation using combinations of CDDO with ATRA were tested. […] Cell differentiation was analyzed by flow cytometry (CD14/CD11b staining). […] These experiments were repeated. […]
Finally, the inventors examined if CDDO-Me combined with ATRA would enhance differentiation. […] […] Next, combined treatment with CDDO-Me and RXR-specific ligand were tested for potentiation of anti-leukemic effects.

primary AML cells = test: Apoptosis in primary AML samples, subG1 DNA flow cytometry; type: cell-based, human
Experimental: Subjects. Samples of bone marrow or peripheral blood were obtained for in vitro studies from patients with newly diagnosed or recurrent AML with high (>70%) blast count and from patients with myeloid transformation of chronic myeloid leukemia (CML). Informed consent was obtained following institutional guidelines. Mononuclear cells were separated by Ficoll-Hypaque (Sigma Chemical Co) density-gradient centrifugation.
as §1
Cell kinetic and DNA fragmentation studies. The cell cycle kinetics was determined by staining cells with acridine orange for cellular DNA and RNA content followed by flow cytometeric analysis as described. […] Ten thousand events were stored in list mode for analysis. The percentage of cells in the “sub G1 peak” defined the proportion of apoptotic cells in the tested populations. […] Cell-cycle kinetics was analyzed using ModFit software (Verity Software House, Inc., Topsham, Me.). […]

CML-BC sample = test: Colony formation of CML-BC sample; type: cell-based, human; conditions: CDDO 0.5 μM, CDDO-Me 0.1 μM
normal CD34+ cells = test: CFU-GM of normal CD34+ cells (CFU-GEMM assay); type: cell-based, human; conditions: for CFU-GM generated from normal CD34+ cells detected: n=3
Experimental: CFU-Granulocyte-Erythroid-Macrophage-Megakaryocyte (CFU-GEMM) Assay. In three experiments, 2×10^5 CD34^+ cells isolated from normal bone marrow (n=1) or G-CSF-stimulated peripheral blood (n=2) were plated in 0.8% methylcellulose with IMDM, 1 U/mL human erythropoietin (Terry Fox Laboratories, Vancouver, Canada), and 50 ng/mL recombinant hGM-CSF. CDDO-Me was added at the initiation of cultures at concentrations ranging from 0.05 to 0.5 μg/mL.
The effect of CDDO on clonogenic AML cells were tested. […] (FIG. 7).
CDDO-Me. […] Effects of CDDO-Me were also tested on clonogenic AML cells.

U937 cells = test: Atlas Cancer cDNA array, differential gene expression; type: cell-based, human; conditions: 1 μM; CDDO 24 hrs, CDDO-Me 1 hour
Experimental: The differential expression of a large number of genes involved in apoptosis, proliferation and signal transduction were analyzed utilizing the Atlas Cancer c-DNA array from Clontech (Palo Alto, Calif.). […] The downregulation of 17 genes (over two-fold) was seen, some of these genes were MAPKK5, STAT5A and B, DNA topoisomerase 2, VEGFR1 and VEGF. […] Differential expression of a large number of genes involved in apoptosis, proliferation and signal transduction was also performed for CDDO-Me. […] In preliminary studies, the inventors observed over two-fold downregulation of 23 genes: these include MAPK/ERK2, endothelin2, MLH1. Remarkably, decreased expression of VEGFR1, that potentially mediate pro-angiogenic properties of the leukemic cells, was observed (FIG. 33). […] The cDNA array data require conformation but may indicate what changes in gene expression contribute to the observed anti-leukemic effects of CDDO-Me.

[3] = tested on: vascular endothelial cells (HUVECs); test: Proliferation of cytokine-stimulated vascular endothelial cells ([3H]-Thymidine, microscopy); type: cell-based
Experimental: CDDO. PPARγ nuclear receptor is expressed in bone marrow endothelial cells, and PPARγ ligands inhibit inhibited endothelial cell proliferation. […] The present inventors therefore tested the effects of CDDO in endothelial cell assays. The formation of tube-like endothelial structures was performed using Matrigel®, a basement membrane matrix extracted from the Engelbreth-Holm Swarm mouse sarcoma cell line. Bone marrow endothelial cells with recombinant angiogenic cytokines were incubated in the presence or absence of CDDO, and formation of tube-like endothelial structures was assessed by direct observation using a inverted contrast-phase microscope. […] Vascular endothelial cells (HUVEC) were grown in EBM-2 or EGM-2 media (Clonetics) containing VEGF, EGF, bFGF and IGF-1. The proliferation of endothelial cells was assessed by inverted contrast-phase microscope after 24 hrs of CDDO exposure in the indicated concentrations. CDDO-Me. The formation of tube-like endothelial structures that are associated with angiogenesis was analyzed using a Matrigel system (Kubota et al., 1988). Capillary-like structure formation of bone marrow endothelium was inhibited by CDDO-Me. […] Thus, CDDO-Me also has anti-angiogenic effects.

For `CC1(C)CCC2(C(=O)O)CCC3(C)C(C(=O)C=C4C5(C)C=C(C#N)C(=O)C(C)(C)C5CCC43C)C2C1` (stereo not shown) [CDDO, 2-cyano-3,12-dioxoolen-1,9-dien-28-oic acid], the IC50 (HL-60 cells [1]; Homo sapiens, 72 and 96 hours, read-out: concentration of CDDO that reduced cell numbers by 50%) was 0.001 µM, the IC50 (HL-60 cells [1]; Homo sapiens, 48 hours, read-out: concentration of CDDO that reduced cell numbers by 50%) was 0.01 µM and the “concentration needed to exert similar effect (CD11b+ as 0.1 μM CDDO-Me)” value (HL-60 cells [2]) was 1 µM. For the same molecule, the CD11b % (HL-60 cells [2]; 0.1 μM (DMSO control 24.9)) was 45.0%, the CD11b % (HL-60 cells [2]; 0.3 μM) was 75.9% and the “percentage of CD14 (+) live cells (FCM)” value (HL-60 cells [2]; CDDO 0.5 μM) was 36.7%. The “percentage of CD14 (+) live cells (FCM)” value (HL-60 cells [2]; CDDO 1 μM) was 80.4%, the “concentration at which monocytic differentiation was induced” value (HL-60 cells [2]; HL-60 cells) was 0.5 to 1.0 µM and the “AML samples in which apoptosis was induced” value (primary AML cells; 1 μM) was 3 of 6. The “AML samples in which apoptosis was induced” value (primary AML cells; 5 μM) was 5 of 6, the “apoptosis in AML samples” value (primary AML cells; CDDO 1 μM, ara-C 1 μM, alone or combined, n=23 (DMSO control 27.7±3.7%)) was 41.2±4.4% and the “paired mean difference±SEM in apoptosis” value (primary AML cells; CDDO vs DMSO) was 13.5%±2.8. For the same molecule, the inhibition at 0.5 µM (CML-BC sample; Homo sapiens, read-out: inhibition of colonies in one CML-BC sample) was over 50%, the “CFU-GM of normal CD34+ cells inhibited by” value (normal CD34+ cells; at this concentration (n=3)) was 26.8±4.3% and the “number of genes downregulated over two-fold” value (U937 cells) was 17. The “number of genes upregulated” value (U937 cells) was 7 and the “proliferation / structure formation of cytokine-stimulated vascular endothelial cells” value [3] was “diminished the proliferation”.

With `COC(=O)[C@]12CCC(C)(C)C[C@H]1[C@H]1C(=O)C=C3[C@@]4(C)C=C(C#N)C(=O)C(C)(C)[C@@H]4CC[C@@]3(C)[C@]1(C)CC2` [CDDO-Me] the viable cells recovered (HL-60 cells [1]; 0.5 μM, 48 hrs) was “essentially no viable cells”, the IC50 (HL-60 cells [1]; read-out: IC50) was 0.4 µM and the “CD11b+ cells” value (HL-60 cells [2]; 0.1 μM) was 86.6%. For the same molecule, the “CD11b+ cells” value (HL-60 cells [2]; 48 hrs, CDDO-Me 0.1 μM, ATRA 1 μM, alone or simultaneously (DMSO controls 40%)) was 67.4%, the “paired mean difference to DMSO control (mean±SEM), apoptotic cells” value (primary AML cells; 0.1 μM) was 26.9%±10.8 and the “paired mean difference to DMSO control (mean±SEM), apoptotic cells” value (primary AML cells; 0.5 μM) was 43.2%±5.2. The “AML samples in which apoptosis was induced” value (primary AML cells; 1 μM) was 5 of 6, the “AML samples in which apoptosis was induced” value (primary AML cells; 5 μM) was 6 of 6 and the “samples with more than 90% apoptotic cells” value (primary AML cells; 5 μM) was 4/6. For the same molecule, the “cell killing in AML samples” value (primary AML cells; CDDO-Me 1 μM, ara-C 1 μM, alone or combined, n=6 (DMSO control 24.9±7.4%)) was 50.5±15%, the “samples with dose-dependent increase in percentage of apoptotic cells” value (primary AML cells; lower concentrations) was 4/4 and the “inhibition of colonies in one CML-BC sample” value (CML-BC sample) was over 50%. For the same molecule, the “CFU-GM generated from normal CD34+ cells detected” value (normal CD34+ cells; 0.1 μM) was 79±5.6%, the “CFU-GM generated from normal CD34+ cells detected” value (normal CD34+ cells; 0.5 μM) was 63.4±1.1% and the “number of genes downregulated over two-fold” value (U937 cells) was 23. The “number of genes upregulated” value (U937 cells) was “Twenty-two” and the “proliferation / structure formation of cytokine-stimulated vascular endothelial cells” value [3] was “also inhibited”.
